Where a SMILES comes first, the peptide text is derived from it. Bridges are numbered along the chain shown (N, C = ends). [ ]: non-standard residue; d: D form. The star is where a group is joined. hPhe(3-Cl-4-CF3) = N[C@@H](CCc1ccc(C(F)(F)F)c(Cl)c1)C(=O)O; NPrPhe(4-CF3) = CCCN[C@@H](Cc1ccc(C(F)(F)F)cc1)C(=O)O; NMeGly(cPent) = CN[C@H](C(=O)O)C1CCCC1; Pro(4,4-F2) = O=C(O)[C@@H]1CC(F)(F)CN1; NMeD = CN[C@@H](CC(=O)O)C(=O)O; NMeL = CN[C@@H](CC(C)C)C(=O)O; Morpholide = C1CN(*)CCO1; Ac5c = NC1(C(=O)O)CCCC1; Aze = O=C(O)[C@@H]1CCN1; Ac4c = NC1(C(=O)O)CCC1; NPrGly = CCCNCC(=O)O; NEtG = CCNCC(=O)O; Sar = CNCC(=O)O
Key:
[1] = target: GDP-bound NRAS wild-type protein (Homo sapiens, UniProt P01111); assay: Binding to NRAS by surface plasmon resonance (SPR), Single Cycle Kinetics
[2] = target: GDP-bound HRAS wild-type protein (Homo sapiens, UniProt P01112); assay: Binding to HRAS by surface plasmon resonance (SPR), Single Cycle Kinetics
Chain of GDP-bound HRAS wild-type protein (P01112 whole entry): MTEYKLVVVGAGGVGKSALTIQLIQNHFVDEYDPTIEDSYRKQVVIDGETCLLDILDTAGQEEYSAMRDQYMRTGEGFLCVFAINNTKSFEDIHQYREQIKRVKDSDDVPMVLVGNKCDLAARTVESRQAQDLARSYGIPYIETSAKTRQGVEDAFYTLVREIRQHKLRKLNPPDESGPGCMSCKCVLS

Chain of GDP-bound NRAS wild-type protein (P01111 whole entry): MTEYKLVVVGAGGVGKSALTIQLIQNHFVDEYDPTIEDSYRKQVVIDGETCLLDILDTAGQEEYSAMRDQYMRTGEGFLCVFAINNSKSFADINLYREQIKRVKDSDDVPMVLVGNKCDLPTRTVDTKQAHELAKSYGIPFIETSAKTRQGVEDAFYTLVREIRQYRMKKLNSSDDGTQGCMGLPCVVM

CC[C@H](C)[C@@H]1NC(=O)[C@@H]2CCCCCN2C(=O)C[C@@H](C(=O)N2CCOCC2)N(C)C(=O)[C@H](C2CCCC2)N(C)C(=O)C2(CCCC2)NC(=O)[C@@H]2CCCN2C(=O)[C@H](CCc2cc(F)c(C(F)(F)F)c(F)c2)NC(=O)CN(C)C(=O)[C@H](Cc2ccc(C(F)(F)F)cc2)N2CCCCC[C@@H](C2=O)N(C)C(=O)CN(C)C1=O [PP0521]
NRAS/KRAS (ratio of KD value with respect to GDP-bound NRAS wild-type protein to KD value with respect to KRAS) ([1]; SPR): B (a compound having 3 or more and less than 10 is denoted as B)
HRAS/KRAS (ratio of KD value with respect to GDP-bound HRAS wild-type protein to KD value with respect to KRAS) ([2]; SPR): B (a compound having 3 or more and less than 10 is denoted as B)

CCCN1CC(=O)NC2(CCCC2)C(=O)N(C)[C@@H](C2CCCC2)C(=O)N(C)[C@H](C(=O)N2CCOCC2)CC(=O)N(C)[C@@H](CC(C)C)C(=O)N[C@@H]([C@@H](C)CC)C(=O)N(CC)CC(=O)N(C)CC(=O)N(CCC)[C@@H](Cc2ccc(C(F)(F)F)cc2)C(=O)N(C)CC(=O)N[C@@H](CCc2ccc(C(F)(F)F)c(Cl)c2)C1=O [PP0301] ([NMeL]I[NEtG][Sar][NPrPhe(4-CF3)][Sar][hPhe(3-Cl-4-CF3)][NPrGly][Ac5c][NMeGly(cPent)][NMeD]-Morpholide; lactam N-11)
NRAS/KRAS (ratio of KD for GDP-bound NRAS wild-type to KD for KRAS) ([1]; SPR): B (a compound having 3 or more and less than 10 is denoted as B)
HRAS/KRAS (ratio of KD for GDP-bound HRAS wild-type to KD for KRAS) ([2]; SPR): C (A compound having a KD ratio of 0.1 or more and less than 3 is denoted as C)

CCC[C@H]1C(=O)N[C@@H](CC(C)C)C(=O)N(CCOC)CC(=O)N(C)[C@H]2C/C=C\CCN(C2=O)[C@@H](Cc2ccc(C)cc2)C(=O)N(C)CC(=O)N[C@@H](CCc2ccc(C(F)(F)F)c(OC)c2)C(=O)N2C[C@H](OCC)C[C@H]2C(=O)NC2(CC(C)(C)C2)C(=O)N(C)[C@@H](C2CCCC2)C(=O)N(C)[C@H](C(=O)N(C)C)CC(=O)N1C [PP2522]
NRAS/KRAS (ratio of KD value with respect to GDP-bound NRAS wild-type protein to KD value with respect to KRAS) ([1]; class symbols): B (a compound having 3 or more and less than 10 is denoted as B)
HRAS/KRAS (ratio of KD value with respect to GDP-bound HRAS wild-type protein to KD value with respect to KRAS) ([2]; class symbols): B (a compound having 3 or more and less than 10 is denoted as B)

CCCN1C(=O)[C@@H]2CCN2C(=O)CN(C)C(=O)[C@H]([C@@H](C)CC)NC(=O)[C@H](CC(C)C)N(C)C(=O)C[C@@H](C(=O)N2CCOCC2)NC(=O)[C@H](C2CCCC2)N(C)C(=O)C2(CCCC2)NC(=O)[C@@H]2CCCN2C(=O)[C@H](CCc2ccc(C(F)(F)F)c(Cl)c2)NC(=O)CN(C)C(=O)[C@@H]1Cc1ccc(C(F)(F)F)cc1 [PP0349] ([NMeL]I[Sar][Aze][NPrPhe(4-CF3)][Sar][hPhe(3-Cl-4-CF3)]P[Ac5c][NMeGly(cPent)]D-Morpholide; lactam N-11)
NRAS/KRAS (ratio of KD for GDP-bound NRAS wild-type to KD for KRAS) ([1]; SPR): C (A compound having a KD ratio of 0.1 or more and less than 3 is denoted as C)
HRAS/KRAS (ratio of KD for GDP-bound HRAS wild-type to KD for KRAS) ([2]; SPR): B (a compound having 3 or more and less than 10 is denoted as B)

CCCN1C(=O)[C@@H]2CCN2C(=O)CN(C)C(=O)[C@H]([C@@H](C)CC)NC(=O)[C@H](CC(C)C)N(C)C(=O)C[C@@H](C(=O)N2CCOCC2)N(C)C(=O)[C@H](C2CCCC2)N(C)C(=O)C2(CCC2)NC(=O)[C@@H]2CC(F)(F)CN2C(=O)[C@H](CCc2ccc(C(F)(F)F)c(Cl)c2)NC(=O)CN(C)C(=O)[C@@H]1Cc1ccc(C(F)(F)F)cc1 [PP0409] ([NMeL]I[Sar][Aze][NPrPhe(4-CF3)][Sar][hPhe(3-Cl-4-CF3)][Pro(4,4-F2)][Ac4c][NMeGly(cPent)][NMeD]-Morpholide; lactam N-11)
NRAS/KRAS (ratio of KD value with respect to GDP-bound NRAS wild-type protein to KD value with respect to KRAS) ([1]; SPR): C (A compound having a KD ratio of 0.1 or more and less than 3 is denoted as C)
HRAS/KRAS (ratio of KD value with respect to GDP-bound HRAS wild-type protein to KD value with respect to KRAS) ([2]; SPR): C (A compound having a KD ratio of 0.1 or more and less than 3 is denoted as C)

CC[C@H](C)[C@@H]1NC(=O)[C@H](COC)N(C)C(=O)C[C@@H](C(=O)N2CCOCC2)N(C)C(=O)[C@H](C2CCCC2)N(C)C(=O)C2(CCC2)NC(=O)[C@@H]2C[C@@H](OC)CN2C(=O)[C@H](CCc2cc(F)c(C(F)(F)F)c(F)c2)NC(=O)CN(C)C(=O)[C@H](Cc2ccc(C(F)(F)F)cc2)N2CCCCC[C@@H](C2=O)N(C)C(=O)CN(C)C1=O [PP0837]
NRAS/KRAS (ratio of KD value with respect to NRAS to KD value with respect to KRAS) ([1]; KD ratio, GDP-bound NRAS wild-type vs GDP-bound KRAS wild-type, SPR): B (a compound having 3 or more and less than 10 is denoted as B)
HRAS/KRAS (ratio of KD value with respect to HRAS to KD value with respect to KRAS) ([2]; KD ratio, GDP-bound HRAS wild-type vs GDP-bound KRAS wild-type, SPR): B (a compound having 3 or more and less than 10 is denoted as B)

CCC[C@H]1C(=O)N[C@@H](CC(C)C)C(=O)N2C[C@@H](OC)C[C@H]2C(=O)N(C)[C@H]2C/C=C\CCN(C2=O)[C@@H](Cc2ccc(C)cc2)C(=O)N(C)CC(=O)N[C@@H](CCc2ccc(C(F)(F)F)c(OC)c2)C(=O)N2C[C@H](OCC)C[C@H]2C(=O)NC2(CC(C)(C)C2)C(=O)N(C)[C@@H](C2CCCC2)C(=O)N(C)[C@H](C(=O)N(C)C)CC(=O)N1C [PP2554]
NRAS/KRAS (ratio of KD value with respect to GDP-bound NRAS wild-type protein to KD value with respect to KRAS) ([1]; class symbols): A (a compound having 10 or more and less than 20 is denoted as A)
HRAS/KRAS (ratio of KD value with respect to GDP-bound HRAS wild-type protein to KD value with respect to KRAS) ([2]; class symbols): B (a compound having 3 or more and less than 10 is denoted as B)
